Experiments:
Human κ-Opioid (KOP) = target: T1, Human κ-Opioid (KOP) (Homo sapiens, UniProt P41145); assay: Radioligand binding, human κ-opioid (KOP) membranes, filtration, [3H]-Diprenorphine; details: compound at 10 μM; [3H]-Diprenorphine
T1 construct: purchased Perkin Elmer Biosignal
In short: (§1)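 Membranes from cloned human receptors were incubated with compound and radioligand for 1 hour at room temperature. Bound ligand was collected on 0.3% PEI-soaked filters, washed with cold 50 mM Tris-HCl pH 7.4, and counted by scintillation. Percent inhibition was computed against DMSO totals and reference-ligand nonspecific wells.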

[1] = target: T2, Human neuropeptide Y (NPY-Y1) (Homo sapiens, UniProt P25929); assay: Radioligand binding, human neuropeptide Y NPY-Y1 membranes, FlashPlate, [125I]-PYY; details: compound at 10 μM; [125I]-PYY
T2 construct: purchased Perkin Elmer Biosignal
T2 sequence (P25929 1-384): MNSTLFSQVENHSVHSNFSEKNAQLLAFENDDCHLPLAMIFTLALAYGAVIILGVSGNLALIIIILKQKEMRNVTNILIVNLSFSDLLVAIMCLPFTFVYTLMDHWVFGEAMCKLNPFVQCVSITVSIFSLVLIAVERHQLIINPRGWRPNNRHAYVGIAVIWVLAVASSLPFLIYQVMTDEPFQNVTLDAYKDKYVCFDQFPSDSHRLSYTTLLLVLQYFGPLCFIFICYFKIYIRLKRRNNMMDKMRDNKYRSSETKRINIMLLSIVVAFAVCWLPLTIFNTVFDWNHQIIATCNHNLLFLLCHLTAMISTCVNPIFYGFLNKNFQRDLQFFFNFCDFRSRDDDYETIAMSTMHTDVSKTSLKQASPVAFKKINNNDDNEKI
In short: (§2)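 Cloned human receptor membranes were coated onto FlashPlate wells and incubated with radioligand and compound (added from a 0.5 mM DMSO daughter plate) for 1 hour at room temperature in the dark. Scintillation counting gave percent inhibition, with DMSO defining total and reference ligand defining non-specific binding.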

Human Melanocortin (MC3) = target: T3, Human Melanocortin (MC3) (Homo sapiens, UniProt P41968); assay: Radioligand binding, human melanocortin MC3 membranes, FlashPlate, [125I]-NDP-αMSH; details: compound at 10 μM; [125I]-NDP-αMSH
T3 construct: purchased Perkin Elmer Biosignal
T3 sequence (P41968 whole entry): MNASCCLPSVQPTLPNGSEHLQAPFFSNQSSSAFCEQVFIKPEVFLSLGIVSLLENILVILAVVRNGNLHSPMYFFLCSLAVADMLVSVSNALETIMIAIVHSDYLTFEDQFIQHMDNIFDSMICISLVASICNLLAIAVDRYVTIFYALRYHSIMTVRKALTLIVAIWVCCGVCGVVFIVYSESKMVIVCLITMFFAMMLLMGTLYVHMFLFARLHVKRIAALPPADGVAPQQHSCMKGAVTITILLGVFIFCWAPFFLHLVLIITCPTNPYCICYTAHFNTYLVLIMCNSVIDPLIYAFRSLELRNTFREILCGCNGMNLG
In short: as §2

Human melanocortin (MC5) = target: T4, Human melanocortin (MC5) (Homo sapiens, UniProt P33032); assay: Radioligand binding, human melanocortin MC5 membranes, FlashPlate, [125I]-NDP-αMSH; details: compound at 10 μM; [125I]-NDP-αMSH
T4 construct: purchased Perkin Elmer Biosignal
T4 sequence (P33032 whole entry): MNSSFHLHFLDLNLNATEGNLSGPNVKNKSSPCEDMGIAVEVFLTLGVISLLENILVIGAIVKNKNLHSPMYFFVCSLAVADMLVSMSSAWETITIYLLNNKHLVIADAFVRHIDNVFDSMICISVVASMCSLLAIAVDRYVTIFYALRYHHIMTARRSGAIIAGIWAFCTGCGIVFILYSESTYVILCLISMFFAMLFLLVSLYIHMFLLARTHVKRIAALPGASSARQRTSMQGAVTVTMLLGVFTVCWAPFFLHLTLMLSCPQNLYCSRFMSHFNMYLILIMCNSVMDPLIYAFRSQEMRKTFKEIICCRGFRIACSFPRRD
In short: as §2

[2] = target: T5, Human melanin-concentrating hormone (MCH1) (Homo sapiens, UniProt Q99705); assay: Radioligand binding, human melanin-concentrating hormone MCH1 membranes, FlashPlate, [125I]-S36057; details: compound at 10 μM; [125I]-S36057
T5 construct: purchased Perkin Elmer Biosignal
T5 sequence (Q99705 whole entry): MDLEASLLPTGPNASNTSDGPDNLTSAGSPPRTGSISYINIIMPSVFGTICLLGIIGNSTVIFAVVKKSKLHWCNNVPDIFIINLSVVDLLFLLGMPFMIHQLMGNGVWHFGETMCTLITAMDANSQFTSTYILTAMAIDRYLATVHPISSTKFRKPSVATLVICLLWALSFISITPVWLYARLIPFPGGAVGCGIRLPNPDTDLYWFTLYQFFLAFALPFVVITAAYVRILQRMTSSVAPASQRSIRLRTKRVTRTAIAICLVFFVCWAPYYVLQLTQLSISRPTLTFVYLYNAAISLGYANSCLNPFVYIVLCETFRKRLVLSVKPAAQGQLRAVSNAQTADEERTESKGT
In short: as §2

Human opioid (ORL1) = target: T6, Human opioid (ORL1) (Homo sapiens, UniProt P41146); assay: Radioligand binding, human opioid ORL1 membranes, FlashPlate, [125I]-Nociceptin; details: compound at 10 μM; [125I]-Nociceptin
T6 construct: purchased Perkin Elmer Biosignal
T6 sequence (P41146 whole entry): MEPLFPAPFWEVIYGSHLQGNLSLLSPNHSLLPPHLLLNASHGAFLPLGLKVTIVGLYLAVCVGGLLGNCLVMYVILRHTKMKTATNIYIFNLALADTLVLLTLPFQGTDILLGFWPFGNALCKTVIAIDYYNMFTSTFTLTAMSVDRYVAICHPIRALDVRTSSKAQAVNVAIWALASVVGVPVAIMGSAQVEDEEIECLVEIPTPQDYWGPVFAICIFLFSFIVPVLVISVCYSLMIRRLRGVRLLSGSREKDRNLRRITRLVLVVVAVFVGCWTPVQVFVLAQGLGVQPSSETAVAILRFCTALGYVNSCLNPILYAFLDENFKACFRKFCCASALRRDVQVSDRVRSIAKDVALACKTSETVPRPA
In short: as §2

Human neurokinin (NK1) = target: T7, Human neurokinin (NK1) (Homo sapiens, UniProt P25103); assay: Radioligand binding, human neurokinin NK1 membranes, filtration, [125I]-Substance P; details: compound at 10 μM; [125I]-Substance P
T7 construct: purchased Perkin Elmer Biosignal
T7 sequence (P25103 whole entry): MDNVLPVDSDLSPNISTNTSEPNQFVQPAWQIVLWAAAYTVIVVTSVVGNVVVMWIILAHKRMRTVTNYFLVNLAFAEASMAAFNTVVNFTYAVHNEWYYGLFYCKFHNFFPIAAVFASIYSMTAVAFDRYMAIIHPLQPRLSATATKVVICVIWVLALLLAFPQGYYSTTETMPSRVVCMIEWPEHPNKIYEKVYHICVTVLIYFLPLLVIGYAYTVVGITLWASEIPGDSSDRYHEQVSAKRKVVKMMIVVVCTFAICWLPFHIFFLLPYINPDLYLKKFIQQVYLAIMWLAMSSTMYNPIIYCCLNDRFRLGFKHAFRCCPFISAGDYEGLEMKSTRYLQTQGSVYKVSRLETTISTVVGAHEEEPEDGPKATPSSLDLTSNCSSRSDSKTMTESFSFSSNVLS
In short: as §1

Human μ-opioid (MOP) = target: T8, Human μ-opioid (MOP) (Homo sapiens, UniProt P35372); assay: Radioligand binding, human μ-opioid (MOP) membranes, FlashPlate, [3H]-Naloxone; details: compound at 10 μM; [3H]-Naloxone
T8 construct: purchased Perkin Elmer Biosignal
T8 sequence (P35372 whole entry): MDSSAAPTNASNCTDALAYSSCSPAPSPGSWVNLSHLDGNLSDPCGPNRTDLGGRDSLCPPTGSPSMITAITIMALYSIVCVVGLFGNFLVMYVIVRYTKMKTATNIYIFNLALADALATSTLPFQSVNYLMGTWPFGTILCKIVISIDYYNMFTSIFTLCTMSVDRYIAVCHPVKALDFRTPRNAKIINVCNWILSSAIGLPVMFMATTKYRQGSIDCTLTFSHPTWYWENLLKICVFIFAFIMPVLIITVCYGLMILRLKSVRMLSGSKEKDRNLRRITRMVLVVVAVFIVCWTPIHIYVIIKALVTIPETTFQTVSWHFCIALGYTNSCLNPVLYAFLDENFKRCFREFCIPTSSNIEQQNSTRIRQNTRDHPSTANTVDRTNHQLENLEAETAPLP
In short: as §2

Human Melanocortin (MC4) = target: T9, Human Melanocortin (MC4) (Homo sapiens, UniProt P32245); assay: Radioligand binding, human melanocortin MC4 membranes, FlashPlate, [125I]-NDP-αMSH; details: compound at 10 μM; [125I]-NDP-αMSH
T9 construct: purchased Perkin Elmer Biosignal
T9 sequence (P32245 whole entry): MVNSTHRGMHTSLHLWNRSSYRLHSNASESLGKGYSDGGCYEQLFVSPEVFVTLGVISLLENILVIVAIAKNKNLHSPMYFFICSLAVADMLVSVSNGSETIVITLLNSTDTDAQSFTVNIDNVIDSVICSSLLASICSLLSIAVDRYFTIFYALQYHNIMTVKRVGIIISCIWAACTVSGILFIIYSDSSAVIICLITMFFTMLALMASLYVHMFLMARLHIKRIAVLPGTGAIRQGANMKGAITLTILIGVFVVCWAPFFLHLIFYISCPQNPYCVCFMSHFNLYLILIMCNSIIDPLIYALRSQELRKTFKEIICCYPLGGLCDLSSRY
In short: as §2

Mouse urotensin (mUR2) = target: T10, Mouse urotensin (mUR2) (Mus musculus, UniProt Q8VIH9); assay: Radioligand binding, mouse urotensin mUR2 membranes, FlashPlate, [125I]-Urotensin II; details: compound at 10 μM; [125I]-Urotensin II
T10 construct: purchased Perkin Elmer Biosignal
T10 sequence (Q8VIH9 1-385): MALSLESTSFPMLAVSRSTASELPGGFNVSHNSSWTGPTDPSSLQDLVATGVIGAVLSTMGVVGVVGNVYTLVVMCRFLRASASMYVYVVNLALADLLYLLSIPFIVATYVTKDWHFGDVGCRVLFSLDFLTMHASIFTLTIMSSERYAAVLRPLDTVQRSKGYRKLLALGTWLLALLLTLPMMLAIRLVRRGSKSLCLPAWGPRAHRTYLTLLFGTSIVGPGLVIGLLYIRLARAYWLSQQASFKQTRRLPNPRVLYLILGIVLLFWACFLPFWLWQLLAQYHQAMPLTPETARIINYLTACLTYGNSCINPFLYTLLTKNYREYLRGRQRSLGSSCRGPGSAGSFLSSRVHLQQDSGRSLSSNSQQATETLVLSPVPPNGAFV
In short: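 Cloned mouse urotensin (mUR2) receptor membranes from Perkin Elmer Biosignal were immobilized in FlashPlate microplates using a proprietary coating. Each well got 19.5 μl buffer, then 0.5 μl of DMSO, reference ligand, or compound. Adding 5 μl of [125I]-Urotensin II, diluted to 5× final concentration in binding buffer, started binding. Plates were sealed with TopSeal-A and incubated 1 hour at room temperature in the dark. Wells were counted for 30 seconds each on a TopCount after a 60-second delay, and percentage inhibition was calculated.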

Human δ-opioid (DOP) = target: T11, Human δ-opioid (DOP) (Homo sapiens, UniProt P41143); assay: Radioligand binding, human δ-opioid (DOP) membranes, FlashPlate, [3H]-Bremazocine; details: compound at 10 μM; [3H]-Bremazocine
T11 construct: purchased Perkin Elmer Biosignal
T11 sequence (P41143 whole entry): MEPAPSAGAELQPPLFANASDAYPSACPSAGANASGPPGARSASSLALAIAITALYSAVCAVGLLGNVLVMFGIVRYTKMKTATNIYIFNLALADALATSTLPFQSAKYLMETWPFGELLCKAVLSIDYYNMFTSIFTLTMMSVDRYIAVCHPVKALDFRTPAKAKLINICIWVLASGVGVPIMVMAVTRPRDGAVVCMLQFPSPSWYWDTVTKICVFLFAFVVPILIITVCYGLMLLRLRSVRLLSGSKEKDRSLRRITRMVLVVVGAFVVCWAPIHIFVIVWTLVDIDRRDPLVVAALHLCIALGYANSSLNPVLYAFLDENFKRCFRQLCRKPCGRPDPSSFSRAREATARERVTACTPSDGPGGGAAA
In short: as §2

T1 sequence (P41145 whole entry): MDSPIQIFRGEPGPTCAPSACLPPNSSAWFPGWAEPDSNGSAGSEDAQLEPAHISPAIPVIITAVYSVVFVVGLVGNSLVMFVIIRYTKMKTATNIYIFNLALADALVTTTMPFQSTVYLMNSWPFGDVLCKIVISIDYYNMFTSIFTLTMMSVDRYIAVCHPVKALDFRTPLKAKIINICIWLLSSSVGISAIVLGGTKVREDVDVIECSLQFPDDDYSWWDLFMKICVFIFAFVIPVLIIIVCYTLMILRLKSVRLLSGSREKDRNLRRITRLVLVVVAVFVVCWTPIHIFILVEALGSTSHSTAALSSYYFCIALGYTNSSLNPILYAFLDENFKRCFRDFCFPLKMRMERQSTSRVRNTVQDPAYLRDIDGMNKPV

SMILES	A2: inhibition of radioligand binding, human κ-opioid (KOP) (Human κ-Opioid (KOP))	A9: inhibition of radioligand binding, human neuropeptide Y (NPY-Y1) [1]	A3: inhibition of radioligand binding, human melanocortin (MC3) (Human Melanocortin (MC3))	A5: inhibition of radioligand binding, human melanocortin (MC5) (Human melanocortin (MC5))	A6: inhibition of radioligand binding, human melanin-concentrating hormone (MCH1) [2]	A10: inhibition of radioligand binding, human opioid (ORL1) (Human opioid (ORL1))	A8: inhibition of radioligand binding, human neurokinin (NK1) (Human neurokinin (NK1))	A7: inhibition of radioligand binding, human μ-opioid (MOP) (Human μ-opioid (MOP))	A4: inhibition of radioligand binding, human melanocortin (MC4) (Human Melanocortin (MC4))	A11: inhibition of radioligand binding, mouse urotensin (mUR2) (Mouse urotensin (mUR2))	A1: inhibition of radioligand binding, human δ-opioid (DOP) (Human δ-opioid (DOP))
CSC1O[C@H](COCc2ccc3ccccc3c2)[C@@H](O)[C@@H](OCc2ccc(-c3ccccc3)cc2)[C@H]1NC(=O)CCCN (stereo partly shown) [compound 299]	− (“−” indicates less than 50% inhibition at 10 μM)	− (“−” indicates less than 50% inhibition at 10 μM)	− (“−” indicates less than 50% inhibition at 10 μM)	− (“−” indicates less than 50% inhibition at 10 μM)	− (“−” indicates less than 50% inhibition at 10 μM)	− (“−” indicates less than 50% inhibition at 10 μM)	+ (“+” indicates greater than 50% inhibition at 10 μM)	− (“−” indicates less than 50% inhibition at 10 μM)	+ (“+” indicates greater than 50% inhibition at 10 μM)	− (“−” indicates less than 50% inhibition at 10 μM)	− (“−” indicates less than 50% inhibition at 10 μM)
CSC1O[C@H](COCc2ccc3ccccc3c2)[C@@H](O)[C@@H](OCc2ccc(-c3ccccc3)cc2)[C@H]1NC(=O)CCCNC(=N)N (stereo partly shown) [compound 300]	− (“−” indicates less than 50% inhibition at 10 μM)	− (“−” indicates less than 50% inhibition at 10 μM)	− (“−” indicates less than 50% inhibition at 10 μM)	+ (“+” indicates greater than 50% inhibition at 10 μM)	− (“−” indicates less than 50% inhibition at 10 μM)	− (“−” indicates less than 50% inhibition at 10 μM)	+ (“+” indicates greater than 50% inhibition at 10 μM)	− (“−” indicates less than 50% inhibition at 10 μM)	− (“−” indicates less than 50% inhibition at 10 μM)	− (“−” indicates less than 50% inhibition at 10 μM)	− (“−” indicates less than 50% inhibition at 10 μM)
CSC1OC(COCc2ccccc2)C(O)C(OCc2ccc3ccccc3c2)C1NC(=O)CN (stereo not shown) [compound 301]	− (“−” indicates less than 50% inhibition at 10 μM)	− (“−” indicates less than 50% inhibition at 10 μM)	− (“−” indicates less than 50% inhibition at 10 μM)	− (“−” indicates less than 50% inhibition at 10 μM)	− (“−” indicates less than 50% inhibition at 10 μM)	− (“−” indicates less than 50% inhibition at 10 μM)	+ (“+” indicates greater than 50% inhibition at 10 μM)	− (“−” indicates less than 50% inhibition at 10 μM)	− (“−” indicates less than 50% inhibition at 10 μM)	− (“−” indicates less than 50% inhibition at 10 μM)	− (“−” indicates less than 50% inhibition at 10 μM)
CSC1OC(COCc2ccccc2)C(O)C(OCc2ccc3ccccc3c2)C1NC(=O)CNC(=N)N (stereo not shown) [compound 302]	− (“−” indicates less than 50% inhibition at 10 μM)	− (“−” indicates less than 50% inhibition at 10 μM)	− (“−” indicates less than 50% inhibition at 10 μM)	+ (“+” indicates greater than 50% inhibition at 10 μM)	− (“−” indicates less than 50% inhibition at 10 μM)	− (“−” indicates less than 50% inhibition at 10 μM)	+ (“+” indicates greater than 50% inhibition at 10 μM)	− (“−” indicates less than 50% inhibition at 10 μM)	+ (“+” indicates greater than 50% inhibition at 10 μM)	− (“−” indicates less than 50% inhibition at 10 μM)	− (“−” indicates less than 50% inhibition at 10 μM)
CSC1OC(COCc2ccccc2)C(O)C(OCc2ccc3ccccc3c2)C1NC(=O)CCNC(=N)N (stereo not shown) [compound 303]	− (“−” indicates less than 50% inhibition at 10 μM)	− (“−” indicates less than 50% inhibition at 10 μM)	− (“−” indicates less than 50% inhibition at 10 μM)	+ (“+” indicates greater than 50% inhibition at 10 μM)	− (“−” indicates less than 50% inhibition at 10 μM)	− (“−” indicates less than 50% inhibition at 10 μM)	+ (“+” indicates greater than 50% inhibition at 10 μM)	− (“−” indicates less than 50% inhibition at 10 μM)	+ (“+” indicates greater than 50% inhibition at 10 μM)	− (“−” indicates less than 50% inhibition at 10 μM)	− (“−” indicates less than 50% inhibition at 10 μM)
